# Measurements: article PMC7069944, “Amino acid levels determine metabolism and CYP450 function of hepatocytes and hepatoma cell lines” (Nature Communications, 2020)
# Several values for one entry are separate records, joined by “and”; a condition that tells them apart may be missing. Identical values can stand only once.
# Key:
# HepG2 = assay: Repeated-exposure DILI training compounds, resazurin conversion, HepG2; conditions: repeat exposure
# Protocol: (§1) To evaluate the ability to predict hepatotoxicity, we adapted the differentiation assays to a 384-well format. […] As a readout, we evaluated cell viability by resazurin conversion and correlated the results to therapeutic doses (Cmax values).
# (§2) PSCs were differentiated in a 384-well format. […] As a negative control, 41 wells were left untreated. HepG2 were seeded at 40,000 cells per well. […] Cells were fixed with 4% PFA. […] Drugs were administrated after 8 h of attachment.
# HC3X = assay: Repeated-exposure DILI training compounds, resazurin conversion, HC3X
# Protocol: as §1, §2
# HC6X = assay: Repeated-exposure DILI training compounds, resazurin conversion, HC6X; conditions: repeat exposure
# Protocol: as §1, §2
# HLC = assay: Repeated-exposure DILI training compounds, resazurin conversion, HLC; conditions: repeat exposure
# Protocol: as §1, §2
smiles,measurement,setting,value
COc1ccccc1Oc1c(NS(=O)(=O)c2ccc(C(C)(C)C)cc2)nc(-c2ncccn2)nc1OCCO [bosentan],% resazurin conversion,"HepG2; HepG2 AAGLY D30, 3 uM",83.9% and 87.5% and 86.6% and 85% and 90.8% and 89.1%
same,% resazurin conversion,"HepG2; HepG2 AAGLY D30, 5 uM",103.5% and 109.8% and 105.4% and 106.1% and 101% and 103.7%
same,% resazurin conversion,"HepG2; HepG2 AAGLY D30, 10 uM",90.8% and 98.2% and 96.3% and 97.7% and 97.3% and 97.5%
same,% resazurin conversion,"HepG2; HepG2 AAGLY D30, 30 uM",90.6% and 101.6% and 98.2% and 101.9% and 99.2% and 99.7%
same,% resazurin conversion,"HepG2; HepG2 AAGLY D30, 50 uM",84.4% and 90.1% and 80.4% and 87% and 86.9% and 92.2%
same,% resazurin conversion,"HepG2; HepG2 AAGLY D30, 600 uM",8% and 8.7% and 8.4% and 8.6% and 8.3% and 9%
same,% resazurin conversion,"HepG2; HepG2 AAGLY D30, 1200 uM",7.9% and 8.6% and 8% and 8.4% and 8.7%
same,% resazurin conversion,"HepG2; HepG2 CTL D7, 3 uM",72.9% and 95.8% and 79% and 88.4% and 77.2% and 78.8%
same,% resazurin conversion,"HepG2; HepG2 CTL D7, 5 uM",73% and 91.1% and 80.4% and 81.6% and 71% and 76.1%
same,% resazurin conversion,"HepG2; HepG2 CTL D7, 10 uM",80.2% and 87.8% and 81.3% and 100.4% and 83.9% and 90.2%
same,% resazurin conversion,"HepG2; HepG2 CTL D7, 30 uM",88.1% and 98.7% and 86.3% and 105.4% and 85.7% and 92.4%
same,% resazurin conversion,"HepG2; HepG2 CTL D7, 50 uM",100.8% and 104.7% and 98% and 123.6% and 67.3% and 101.1%
same,% resazurin conversion,"HepG2; HepG2 CTL D7, 100 uM",111.8% and 105.3% and 106.2% and 109.9% and 117.5%
same,% resazurin conversion,"HepG2; HepG2 CTL D7, 300 uM",107% and 119.1% and 111.5% and 146.3% and 120.1% and 110.8%
same,% resazurin conversion,"HepG2; HepG2 CTL D7, 600 uM",50.2% and 44.9% and 48.2% and 53.5% and 46.5% and 47.5%
same,% resazurin conversion,"HepG2; HepG2 CTL D7, 1200 uM",40.4% and 38.1% and 40.3% and 39.7% and 40.2% and 39%
same,IC50/Cmax,HC3X; human,20.81
same,% resazurin conversion,"HC3X; repeat exposure, HC3X AAGLY D40, 600 uM",1159% and 1257% and 1241% and 1301% and 1247% and 1406%
same,% resazurin conversion,"HC6X; HC6X AAGLY D40, 3 uM",121.3% and 137.4% and 77.6% and 97.3% and 111.3% and 90.5%
same,% resazurin conversion,"HC6X; HC6X AAGLY D40, 5 uM",110% and 103.2% and 89.1% and 89.6% and 114.4% and 93.7%
same,% resazurin conversion,"HC6X; HC6X AAGLY D40, 10 uM",131.4% and 134.4% and 92.1% and 126.5% and 93.7% and 145.1%
same,% resazurin conversion,"HC6X; HC6X AAGLY D40, 50 uM",121.5% and 126.6% and 76.5% and 101.9% and 125.3% and 68.1%
same,% resazurin conversion,"HC6X; HC6X AAGLY D40, 300 uM",51.6% and 48.9% and 38.5% and 48% and 36.4% and 37.5%
same,% resazurin conversion,"HC6X; HC6X AAGLY D40, 600 uM",42.8% and 51.2% and 38.6% and 45.8% and 36.3% and 36.8%
same,% resazurin conversion,"HC6X; HC6X AAGLY D40, 1200 uM",43.6% and 36.9% and 34.8% and 34.9% and 34.2% and 34.3%
same,% resazurin conversion,"HC6X; HC6X AAGLY D40 Remove dox, 5 uM",141.3% and 131.9% and 106.3% and 141.8% and 135.5% and 84.1%
same,% resazurin conversion,"HC6X; HC6X AAGLY D40 Remove dox, 10 uM",112.1% and 102.7% and 152.9% and 116.3% and 149.9% and 95.7%
same,% resazurin conversion,"HLC; HLC AAGLY D40, 3 uM",109.3% and 112.7% and 130.6% and 92% and 117.8% and 119.8%
same,% resazurin conversion,"HLC; HLC AAGLY D40, 10 uM",148.2% and 164.2% and 142.5% and 106% and 129.2% and 90.2%
same,% resazurin conversion,"HLC; HLC AAGLY D40, 30 uM",132.6% and 125.2% and 98.6% and 133% and 124.8%
same,% resazurin conversion,"HLC; HLC AAGLY D40, 300 uM",153.6% and 174.4% and 181% and 131.1% and 171.9% and 113.3%
same,% resazurin conversion,"HLC; HLC LDM D40, 3 uM",65.2% and 80.9% and 104.5% and 116.7% and 90.6% and 90.5%
same,% resazurin conversion,"HLC; HLC LDM D40, 5 uM",79.3% and 100.8% and 63.5% and 57.3% and 83.2% and 66.4%
same,% resazurin conversion,"HLC; HLC LDM D40, 10 uM",54.2% and 93.9% and 81.1% and 77.7% and 59.3% and 81.3%
same,% resazurin conversion,"HLC; HLC LDM D40, 50 uM",60.7% and 70.7% and 67.1% and 86.7% and 80.2% and 104.9%
same,% resazurin conversion,"HLC; HLC LDM D40, 100 uM",75% and 93.6% and 100.7% and 102.7% and 92.9% and 94.1%
